Data reported in patent publication US12291529B2, “Heterocyclic GLP-1 agonists” (Gasherbrum Bio, Inc., priority 2023, dated 2025).

target: GLP-1 Receptor (Homo sapiens, UniProt P43220); experiment: GLP-1R agonist cAMP stimulation assay (HEK293/GLP1R/CRE-LUC cells, Cisbio cAMP dynamic 2 kit); assay type: cell-based; settings: Table 3, HEK293/GLP1R/CRE-LUC cells, 30 min
Experimental: Activation of GLP-1 receptor is known to stimulate cyclic AMP (cAMP) production in cells which indicates primary coupling to the G as subunit of the G protein heterotrimeric complex.
To optimize functional activity directed toward G as coupling, a HEK293/CRE-Luc cell line developed by HDB stably expressing the GLP-1 Receptor was used. 200× concentration of compound working solutions were prepared (Agilent Technologies Bravo) with ½ log serial dilution in 384-well Echo LDV plate (Labcyte, CatOLP-0200). 50 nL/well 200× concentration of compound working solutions were moved to 384-well white low volume plate (Greiner, Cat4784075) using Labcyte ECH0550.1×10^5 cells/mL HEK293/GLP1R/CRE-LUC (HD Biosciences) cell suspensions prepared with assay buffer (DPBS containing 0.5 mM IBMX (Sigma, Cat15879) and 0.10 BSA (GENVIEW, Cat4FA016-100g)), 10 uL cell suspensions were added to each well of previous generated assay plate which already contains 50 n^1 compound at 200 xconcentration using ThermioFisher Multidrop Combi (1000 cells/well). Seal the plate and incubate at 37 with […] for 30 m.
After incubation the cAMP assay signal was generated using cAMP dynamic 2 Kit (Cisbio). 5 μL cAMP-d2 working solution was added to each well, followed with 5 L Anti-cAMP antibody-cryptate working solution added to each well using ThermoFisher Multidrop Combi. Incubate at room temperature for 1 hour protected from light. Read the fluorescence at 665 and 615 nm with Reader PerkinElmer EnVision. % oActivity=100%×(mean RLU of test sample−mean RLU of vehicle control)/(mean RLU of MAX control−mean RLU of vehicle control)

GLP-1 Receptor, sequence (P43220 24-463, species assumed): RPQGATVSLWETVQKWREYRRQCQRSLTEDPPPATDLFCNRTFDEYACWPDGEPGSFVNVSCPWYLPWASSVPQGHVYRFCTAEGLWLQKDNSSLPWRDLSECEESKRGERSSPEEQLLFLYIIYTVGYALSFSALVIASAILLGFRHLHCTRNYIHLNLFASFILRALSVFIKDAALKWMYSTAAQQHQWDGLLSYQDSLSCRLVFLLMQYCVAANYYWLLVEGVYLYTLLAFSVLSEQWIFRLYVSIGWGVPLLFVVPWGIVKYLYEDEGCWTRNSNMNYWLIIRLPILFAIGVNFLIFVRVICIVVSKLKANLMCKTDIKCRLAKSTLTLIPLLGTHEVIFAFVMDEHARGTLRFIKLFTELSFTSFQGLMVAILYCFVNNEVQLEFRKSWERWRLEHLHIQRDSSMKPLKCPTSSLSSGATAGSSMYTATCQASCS

Row | EC50 [nM] | SMILES
1 | 0.27 | Cc1cc(-n2nc3c(c2-n2ccn(-c4ccc(S(C)(=N)=O)cc4)c2=O)[C@H](C)N(C(=O)c2cn4cc(C5CCOCC5)ccc4c2C2(c4noc(=O)[nH]4)CC2)CC3)cc(C)c1F (stereo partly shown) [Compound 109]
2 | 0.049 | Cc1cc(-n2nc3c(c2-n2ccn(-c4ccc(S(C)(=N)=O)cc4)c2=O)[C@H](C)N(C(=O)c2cc4cc(C5CCOCC5)ccc4n2[C@@]2(c4noc(=O)[nH]4)C[C@@H]2C)CC3)cc(C)c1F (single isomer, unassigned) [Compound 115]
3 | 0.46 | Cc1cc(-n2nc3c(c2-n2ccn(-c4ccc(S(C)(=N)=O)cc4)c2=O)[C@H](C)N(C(=O)c2cc4cc(C5CCOCC5)ccn4c2C2(c4noc(=O)[nH]4)CC2)CC3)cc(C)c1F (stereo partly shown) [Compound 107]
4 | 8.8 | CCS(=O)(=NC)c1ccc(-n2ccn(-c3c4c(nn3-c3cc(C)c(F)c(C)c3)CCN(C(=O)c3cc5cc(C6CCOCC6)ccc5n3Cc3ccc(C)nc3)[C@H]4C)c2=O)c(F)c1 (single isomer, unassigned) [Compound 171]
5 | 0.038 | Cc1cc(-n2nc3c(c2-n2ccn(-c4ccc5c(c4)CCCN=S5(=O)C4CC4)c2=O)[C@H](C)N(C(=O)c2cc4cc([C@H]5CCOC(C)(C)C5)ccc4n2[C@@]2(c4noc(=O)[nH]4)C[C@@H]2C)CC3)cc(C)c1F (single isomer, unassigned) [Compound 212]
6 | 0.017 | Cc1cc(-n2nc3c(c2-n2ccn(-c4ccc(S(C)(=N)=O)cc4)c2=O)[C@H](C)N(C(=O)c2cc4cc(C5CCOCC5)ccc4n2[C@@]2(c4noc(=O)[nH]4)C[C@@H]2C)CC3)cc(C)c1F (single isomer, unassigned) [Compound 114]
7 | 0.074 | CN=S(=O)(c1ccc(-n2ccn(-c3c4c(nn3-c3cc(C)c(F)c(C)c3)CCN(C(=O)c3cc5cc([C@H]6CCOC(C)(C)C6)ccc5n3[C@@]3(c5noc(=O)[nH]5)C[C@@H]3C)[C@H]4C)c2=O)c(F)c1Cl)C1CC1 (single isomer, unassigned) [Compound 215]
8 | 0.057 | CN=S1(=O)CCC(Oc2ccc(-n3ccn(-c4c5c(nn4-c4cc(C)c(F)c(C)c4)CCN(C(=O)c4cc6cc(C7CCOCC7)ccc6n4[C@@]4(c6noc(=O)[nH]6)C[C@@H]4C)[C@H]5C)c3=O)cc2C(F)F)CC1 (single isomer, unassigned) [Compound 235]
9 | 0.025 | Cc1cc(-n2nc3c(c2-n2ccn(-c4ccc(CS(C)(=N)=O)cc4F)c2=O)[C@H](C)N(C(=O)c2cc4cc(C5CCOCC5)ccc4n2[C@@]2(c4noc(=O)[nH]4)C[C@@H]2C)CC3)cc(C)c1F (single isomer, unassigned) [Compound 175]
10 | 0.024 | Cc1cc(-n2nc3c(c2-n2ccn(-c4ccc(C5(S(C)(=N)=O)CC5)cc4)c2=O)[C@H](C)N(C(=O)c2cc4cc(C5CCOCC5)ccc4n2[C@@]2(c4noc(=O)[nH]4)C[C@@H]2C)CC3)cc(C)c1F (single isomer, unassigned) [Compound 176]
11 | 0.037 | Cc1cc(-n2nc3c(c2-n2ccn(-c4ccc(S5(=O)=NCCC5)cc4)c2=O)[C@H](C)N(C(=O)c2cc4cc(C5CCOCC5)ccc4n2C2(c4nnn[nH]4)CC2)CC3)cc(C)c1F (single isomer, unassigned) [Compound 172]
12 | 1.8 | CCS(=O)(=NC)c1ccc(-n2ccn(-c3c4c(nn3-c3cc(C)c(F)c(C)c3)CCN(C(=O)c3cc5cc(C6CCOCC6)ccc5n3Cc3cnc(C)cn3)[C@H]4C)c2=O)c(F)c1 (single isomer, unassigned) [Compound 170]
13 | 0.053 | CN=S1(=O)CCC(Oc2ccc(-n3ccn(-c4c5c(nn4-c4cc(C)c(F)c(C)c4)CCN(C(=O)c4cc6cc([C@H]7CCOC(C)(C)C7)ccc6n4[C@@]4(c6noc(=O)[nH]6)C[C@@H]4C)[C@H]5C)c3=O)cc2C2CC2)CC1 (single isomer, unassigned) [Compound 236]
14 | 0.01 | Cc1cc(-n2nc3c(c2-n2ccn(-c4ccc(S(=N)(=O)CC5CC5)cc4F)c2=O)[C@H](C)N(C(=O)c2cc4cc([C@H]5CCOC(C)(C)C5)ccc4n2[C@@]2(c4noc(=O)[nH]4)C[C@@H]2C)CC3)cc(C)c1F (single isomer, unassigned) [Compound 184]
15 | 0.046 | CN=S(=O)(c1cc(F)c(-n2ccn(-c3c4c(nn3-c3cc(C)c(F)c(C)c3)CCN(C(=O)c3cc5cc([C@H]6CCOC(C)(C)C6)ccc5n3[C@@]3(c5noc(=O)[nH]5)C[C@@H]3C)[C@H]4C)c2=O)cc1C)C1CC1 (single isomer, unassigned) [Compound 194]
16 | 0.041 | CC1=Cc2c(ccc(-n3ccn(-c4c5c(nn4-c4cc(C)c(F)c(C)c4)CCN(C(=O)c4cc6cc([C@H]7CCOC(C)(C)C7)ccc6n4[C@@]4(c6noc(=O)[nH]6)C[C@@H]4C)[C@H]5C)c3=O)c2F)S(=O)(C2CC2)=N1 (single isomer, unassigned) [Compound 211]
17 | 0.022 | CCS(=N)(=O)c1ccc(-n2ccn(-c3c4c(nn3-c3cc(C)c(F)c(C)c3)CCN(C(=O)c3cc5cc(C6CCOCC6)ccc5n3[C@@]3(c5noc(=O)[nH]5)C[C@@H]3C)[C@H]4C)c2=O)cn1 (single isomer, unassigned) [Compound 141]
18 | 0.001 | Cc1cc(-n2nc3c(c2-n2ccn(-c4ccc(S(=N)(=O)C5CC5)cc4)c2=O)[C@H](C)N(C(=O)c2cc4cc(C5CCOCC5)ccc4n2[C@@]2(c4noc(=O)[nH]4)C[C@@H]2C)CC3)cc(C)c1F (single isomer, unassigned) [Compound 135]
19 | 0.099 | CCS(=N)(=O)c1ccc(-n2ccn(-c3c4c(nn3-c3cc(C)c(F)c(C)c3)CCN(C(=O)c3cc5cc(C6CCOCC6)ccc5n3[C@@]3(c5noc(=O)[nH]5)C[C@@H]3C)[C@H]4C)c2=O)cn1 (single isomer, unassigned) [Compound 140]
20 | 0.067 | Cc1cc(-n2nc3c(c2-n2ccn(-c4ccc(CS(C)(=N)=O)cc4F)c2=O)[C@H](C)N(C(=O)c2cc4cc(C5CCOCC5)ccc4n2[C@@]2(c4noc(=O)[nH]4)C[C@@H]2C)CC3)cc(C)c1F (single isomer, unassigned) [Compound 174]
21 | 0.028 | CN=S1(=O)CCC(Oc2ccc(-n3ccn(-c4c5c(nn4-c4cc(C)c(F)c(C)c4)CCN(C(=O)c4cc6cc(C7CCOCC7)ccc6n4[C@@]4(c6noc(=O)[nH]6)C[C@@H]4C)[C@H]5C)c3=O)c(F)c2C)CC1 (single isomer, unassigned) [Compound 233]
22 | 0.039 | CN=S(=O)(c1ccc(-n2ccn(-c3c4c(nn3-c3cc(C)c(F)c(C)c3)CCN(C(=O)c3cc5cc([C@H]6CCOC(C)(C)C6)ccc5n3[C@@]3(c5noc(=O)[nH]5)C[C@@H]3C)[C@H]4C)c2=O)c(Cl)c1)C1CC1 (single isomer, unassigned) [Compound 204]
23 | 0.34 | Cc1cc(-n2nc3c(c2-n2ccn(-c4ccc5c(c4)CCS(C)(=O)=N5)c2=O)[C@H](C)N(C(=O)c2cc4cc([C@H]5CCOC(C)(C)C5)ccc4n2[C@@]2(c4noc(=O)[nH]4)C[C@@H]2C)CC3)cc(C)c1F (single isomer, unassigned) [Compound 228]
24 | 0.011 | CCS(=N)(=O)c1ccc(-n2ccn(-c3c4c(nn3-c3cc(C)c(F)c(C)c3)CCN(C(=O)c3cc5cc(C6CCOCC6)ccc5n3[C@@]3(c5noc(=O)[nH]5)C[C@@H]3C)[C@H]4C)c2=O)cc1 (single isomer, unassigned) [Compound 117]
25 | 0.15 | CCS(=N)(=O)c1ccc(-n2ccn(-c3c4c(nn3-c3cc(C)c(F)c(C)c3)CCN(C(=O)c3cc5cc(C6CCOCC6)ccc5n3[C@@]3(c5noc(=O)[nH]5)C[C@@H]3C)[C@H]4C)c2=O)c(Cl)c1 (single isomer, unassigned) [Compound 137]
